How the values were obtained:
[1] = Aripiprazole loading into ammonium sulfate or sodium sulfate liposomes; type: physicochemical; conditions: ratio of ammonium sulfate to sodium sulfate liposomes
Method: Liposomes (HSPC/Chol/PEG-DSPE 3/2/0.15 mol/mol/mol) containing 250 mM ammonium sulfate or 250 mM sodium sulfate were diluted in 1 mL of 50 mM citric acid, 10% (wt/wt) sucrose, pH 4.0 to a concentration of 6 mM phospholipid. 0.3 mg of aripiprazole was added from a stock solution of 15 mg/mL in DMSO, so that the final DMSO concentration was 2% (v/v). Fine precipitates were immediately observed after the drug was added to both liposome samples. The samples were heated at 65° C. for 30 min, the cooled on ice. The samples were filtered through a 0.2 um polyethersulfone syringe filter to remove any drug precipitates, followed by purification on a Sephadex G25 column equilibrated with HBS, pH 6.5 to remove any soluble extraliposome drug. The turbid fraction was collected and analyzed for lipid and drug as described above.

[2] = Aripiprazole precipitates from various solvents, absorbance at 600 nm with liposomes; type: physicochemical; conditions: drug initially dissolved in DMSO, 1-4-methylpyrrolidone, diethylenemonoethylether or polyethyleneglycol (MW400); 7.5% solvent; 65 C 30 min
Method: Aripiprazole was dissolved in a range of solvents indicated below at 4 mg/mL. Liposomes composed of HSPC/Chol/PEG-DSPE (3/2/0.15 mol/mol/mol) that were prepared in 250 mM ammonium sulfate were used and diluted to 6 mM in Hepes buffered sucrose 10% (wt/wt) (HBSuc pH 6.5). 0.3 mg of drug was introduced by slow addition of each solvent while vortexing. The final solvent concentration was 7.5% for all samples. As controls, the drug was added from each solvent to the same volume of HBSuc pH 6.5 without the liposomes. The samples were heated at 65° C. for 30 min then cooled on ice.

SMILES: O=C1CCc2ccc(OCCCCN3CCN(c4cccc(Cl)c4Cl)CC3)cc2N1 [aripiprazole]
- % Efficiency NH4SO4/NaSO4 [1]: 49.3
- clarification of drug precipitate on incubation with liposomes (absorbance at 600 nm) [2]: clarified the drug precipitate

Source: patent US12070471B2, “Remote loading of sparingly water-soluble drugs into lipid vesicles” (CELATOR PHARMACEUTICALS, INC., priority 2014, dated 2024)
